Assay in all cases: ≥ marks a high value that may be exact or a test limit, other limits are often not marked, values filed in µg/mL are converted to µM
One assay relates to Escherichia coli.
A further assay concerns Staphylococcus aureus.
In assay [1] the test system is Escherichia coli ATCC 25922.
Assay [2] relates to Staphylococcus aureus ATCC 29213.
For assay [3], the system named is Staphylococcus epidermidis ATCC 12228.
Assay [4] relates to Pseudomonas aeruginosa ATCC 27853.
The subject of assay [5] is Staphylococcus aureus ATCC 25923.

In brackets after ≈: the same amount, converted by molar mass. A value given as a limit tells only on which side of the number the result lay.

As to `CSCC[C@@H]1NC(=O)[C@H](CC(C)C)NC(=O)[C@H](CCCN=C(N)N)NC(=O)[C@H](CO)NC(=O)[C@@H]2CSSC[C@@H]3NC(=O)[C@H](CO)NC(=O)CNC(=O)[C@H]([C@@H](C)O)NC(=O)[C@H](CSSC[C@H](N)C(=O)N[C@@H](CCCCN)C(=O)NCC(=O)N[C@@H](CCCCN)C(=O)NCC(=O)N[C@@H](C)C(=O)N[C@@H](CCCCN)C(=O)N2)NC(=O)[C@H](CSSC[C@@H](C(=O)NCC(=O)N[C@@H](CO)C(=O)O)NC(=O)[C@H](CCCCN)NC(=O)CNC(=O)[C@H](CO)NC(=O)[C@H](CCCN=C(N)N)NC3=O)NC(=O)[C@H](CC(=O)O)NC(=O)[C@H](Cc2ccc(O)cc2)NC1=O` [CKGKGAKCSRLMYDCCTGSCRSGKCGS], the MIC in the assay on Escherichia coli and in the assay on Staphylococcus aureus was above 500 µM in each case.
Regarding `CC[C@H](C)[C@H](NC(=O)[C@H](CCCN=C(N)N)NC(=O)[C@H](CCCCN)NC(=O)[C@@H](N)Cc1ccccc1)C(=O)NCC(=O)N[C@@H](CCC(N)=O)C(=O)N[C@@H](CCCN=C(N)N)C(=O)N[C@H](C(=O)N[C@@H](CCCCN)C(=O)N[C@@H](CC(=O)O)C(=O)N[C@@H](Cc1ccccc1)C(=O)N[C@@H](CC(C)C)C(=O)N[C@@H](CCCN=C(N)N)C(=O)O)[C@@H](C)CC` [FKRIGQRIKDFLR], the minimum inhibitory concentration (MIC) (as a rule, the least concentration at which growth counts as inhibited) in assay [1] is 5 µM (≈ 8.39 µg/mL); in assay [2], above 40 µM.
In the same order, the values of `CC[C@H](C)[C@H](NC(=O)[C@H](CCCN=C(N)N)NC(=O)[C@H](CCCCN)NC(=O)[C@@H](N)Cc1ccccc1)C(=O)N[C@H](C(=O)N[C@@H](CCC(N)=O)C(=O)N[C@@H](CCCN=C(N)N)C(=O)N[C@@H](C)C(=O)N[C@@H](CCCCN)C(=O)N[C@@H](CC(=O)O)C(=O)N[C@@H](Cc1ccccc1)C(=O)N[C@@H](CC(C)C)C(=O)N[C@@H](CCCN=C(N)N)C(=O)O)C(C)C` [FKRIVQRAKDFLR] are 10 µM (≈ 16.8 µg/mL) and above 40 µM.
In the same order, the values of `CC[C@H](C)[C@H](NC(=O)[C@H](CCCN=C(N)N)NC(=O)[C@H](CCC(N)=O)NC(=O)[C@@H](NC(=O)[C@H](CC(N)=O)NC(=O)[C@H](CCCN=C(N)N)NC(=O)[C@H](CCCCN)NC(=O)[C@@H](N)Cc1ccccc1)C(C)C)C(=O)N[C@@H](CCCCN)C(=O)N[C@@H](CC(=O)O)C(=O)N[C@@H](Cc1ccccc1)C(=O)N[C@@H](CC(C)C)C(=O)N[C@@H](CCCN=C(N)N)C(=O)O` [FKRNVQRIKDFLR] are 20 µM (≈ 34.4 µg/mL) and above 40 µM.
`CC[C@H](C)[C@H](NC(=O)[C@H](Cc1ccccc1)NC(=O)[C@@H]1CCCN1C(=O)[C@H](CC(C)C)NC(=O)[C@@H](N)Cc1ccccc1)C(=O)N[C@@H](C)C(=O)N[C@@H](CCCN=C(N)N)C(=O)N[C@@H](CC(C)C)C(=O)N[C@@H](C)C(=O)N[C@@H](C)C(=O)N[C@@H](CCCCN)C(=O)N[C@H](C(=O)N[C@@H](Cc1ccccc1)C(=O)N1CCC[C@H]1C(=O)N[C@@H](CO)C(=O)N[C@H](C(=O)N[C@H](C(=O)N[C@H]1CSSC[C@@H](C(=O)O)NC(=O)[C@H](CCCCN)NC(=O)[C@H](CCCCN)NC(=O)[C@H]([C@@H](C)O)NC(=O)[C@H](C(C)C)NC(=O)[C@H](CO)NC1=O)[C@@H](C)CC)[C@@H](C)CC)C(C)C` [FLPFIARLAAKVFPSIICSVTKKC]: the values for the MIC (in assay [1]; in assay [2]; against Staphylococcus aureus) were 1.51 µM (≈ 4 µg/mL), 0.533 µM (≈ 1.41 µg/mL) and 55 µM (≈ 146 µg/mL), respectively.
Consider `CC[C@H](C)[C@H](NC(=O)[C@H](CCCCN)NC(=O)[C@H](CC(C)C)NC(=O)[C@H](C)NC(=O)[C@H](C)NC(=O)[C@H](CCCCN)NC(=O)[C@H](CC(C)C)NC(=O)[C@H](C)NC(=O)[C@H](CCCCN)NC(=O)CNC(=O)[C@H](CC(C)C)NC(=O)[C@H](Cc1ccccc1)NC(=O)[C@H](CO)NC(=O)CNC(=O)[C@H](Cc1ccccc1)NC(=O)CN)C(=O)NCC(=O)N[C@@H](C)C(=O)N[C@@H](CC(=O)O)C(=O)N[C@H](C(=O)N[C@@H](CC(C)C)C(=O)NCC(=O)NCC(=O)N[C@@H](C)C(=O)N1CCC[C@H]1C(=O)N[C@@H](CCC(N)=O)C(=O)N[C@@H](CCC(N)=O)C(=O)O)C(C)C` [GFGSFLGKALKAALKIGADVLGGAPQQ], for which the results for the MIC in the assay with Escherichia coli and with Staphylococcus aureus were above 50 µM and 25 µM (≈ 65.4 µg/mL), respectively.
As for `CC[C@H](C)[C@H](NC(=O)CN)C(=O)N[C@@H](CCCCN)C(=O)N[C@@H](CCCCN)C(=O)N[C@@H](Cc1c[nH]c2ccccc12)C(=O)N[C@@H](CC(C)C)C(=O)N[C@@H](Cc1cnc[nH]1)C(=O)N[C@@H](CCCCN)C(=O)N1CCC[C@H]1C(=O)N[C@@H](CCCCN)C(=O)N[C@@H](CCCCN)C(=O)N[C@@H](Cc1ccccc1)C(=O)N1CCC[C@H]1C(=O)N[C@@H](CCCCN)C(=O)N[C@@H](CCCCN)C(=O)N[C@@H](Cc1ccccc1)C(=O)N[C@H](C(=O)N[C@@H](CCCCN)C(=O)N[C@@H](CCCCN)C(=O)N[C@H](C(=O)N[C@@H](CCSC)C(=O)N[C@@H](CC(N)=O)C(=O)N[C@@H](CO)C(N)=O)[C@@H](C)CC)C(C)C` [GIKKWLHKPKKFPKKFVKKIMNS], the MIC in assay [1] amounted to 10 µM (≈ 28.1 µg/mL); in assay [3], 1.25 µM (≈ 3.51 µg/mL).
`CC[C@H](C)[C@H](NC(=O)[C@H](Cc1ccccc1)NC(=O)CNC(=O)[C@H](CCCCN)NC(=O)[C@H](C)NC(=O)[C@H](Cc1ccccc1)NC(=O)[C@H](CCCCN)NC(=O)[C@H](CCCCN)NC(=O)[C@@H](NC(=O)[C@H](CO)NC(=O)[C@H](Cc1cnc[nH]1)NC(=O)[C@H](CC(C)C)NC(=O)[C@@H](NC(=O)[C@H](CCC(=O)O)NC(=O)[C@H](CCCCN)NC(=O)[C@H](CC(C)C)NC(=O)CN)C(C)C)[C@@H](C)O)C(=O)N[C@H](C(=O)NCC(=O)N[C@@H](CC(C)C)C(=O)N[C@H](C(=O)NCC(=O)N[C@@H](CCC(N)=O)C(=O)O)[C@@H](C)O)[C@@H](C)O` [GLKEVLHSTKKFAKGFITGLTGQ]: the MIC against Escherichia coli and against Staphylococcus aureus was above 160 µM throughout.
Take `CC[C@H](C)[C@H](NC(=O)[C@@H](NC(=O)[C@@H](NC(=O)[C@H](Cc1c[nH]c2ccccc12)NC(=O)[C@@H](NC(=O)CN)C(C)C)[C@@H](C)O)[C@@H](C)O)C(=O)N[C@@H](CC(C)C)C(=O)NCC(=O)NCC(=O)N[C@@H](CC(C)C)C(=O)N[C@@H](CCCCN)C(=O)N[C@@H](CCCCN)C(=O)N[C@@H](Cc1ccccc1)C(=O)N[C@@H](C)C(=O)N[C@@H](CCCCN)C(=O)NCC(=O)NCC(=O)N[C@@H](CC(C)C)C(=O)N[C@@H](CCC(=O)O)C(=O)N[C@@H](C)C(=O)N[C@@H](CC(C)C)C(=O)N[C@H](C(=O)N[C@@H](CC(N)=O)C(=O)N1CCC[C@H]1C(=O)N[C@@H](CCCCN)C(=O)O)[C@@H](C)O` [GVWTTILGGLKKFAKGGLEALTNPK]: the values for the MIC in the assay with Escherichia coli and against Staphylococcus aureus were 40 µM (≈ 104 µg/mL) and 80 µM (≈ 208 µg/mL), respectively.
`CC[C@H](C)[C@H](N)C(=O)NCC(=O)N[C@@H](CCCCN)C(=O)N[C@@H](CC(C)C)C(=O)N1CCC[C@H]1C(=O)N[C@@H](CCCCN)C(=O)N[C@@H](Cc1c[nH]c2ccccc12)C(=O)N[C@H](C(=O)N[C@H](C(=O)N[C@@H](CCCCN)C(=O)N[C@H](C(=O)N[C@H](C(=O)N[C@@H](CC(N)=O)C(=O)N[C@@H](CCCCN)C(=O)N[C@@H](Cc1ccccc1)C(=O)N[C@H](C(=O)N[C@@H](CCCCN)C(=O)N[C@@H](CCCCN)C(=O)O)[C@@H](C)O)C(C)C)[C@@H](C)O)[C@@H](C)CC)[C@@H](C)CC` [IGKLPKWIIKTVNKFTKK]: the MIC against Escherichia coli is 2.1 µM (≈ 4.5 µg/mL).
Turning to `CC(=O)N[C@@H](CC(C)C)C(=O)N[C@@H](CCCCN)C(=O)N[C@@H](CCCCN)C(=O)N[C@@H](CC(C)C)C(=O)N1CCC[C@H]1C(=O)N[C@@H](CCCCN)C(=O)N[C@@H](CC(C)C)C(=O)N[C@@H](CO)C(=O)N[C@@H](CCCCN)C(=O)N[C@@H](CCCCN)C(=O)N[C@@H](CC(C)C)C(=O)N[C@@H](CC(C)C)C(=O)N[C@@H](CCCCN)C(=O)N[C@@H](CC(C)C)C(N)=O` [LKKLPKLSKKLLKL], the results for the MIC in assay [1] and in assay [2] were 3.54 µM (≈ 5.98 µg/mL) and 14.1 µM (≈ 23.9 µg/mL), respectively.
For the compound `CC[C@H](C)[C@H](NC(=O)[C@@H](NC(=O)[C@H](C)NC(=O)[C@H](CCCN=C(N)N)NC(=O)[C@H](CC(N)=O)NC(=O)[C@H](Cc1ccccc1)NC(=O)[C@H](CO)NC(=O)[C@@H](NC(=O)[C@H](CCCN=C(N)N)NC(=O)[C@H](CCCN=C(N)N)NC(=O)[C@H](CCCN=C(N)N)NC(=O)[C@H](CC(C)C)NC(=O)[C@H](CCC(=O)O)NC(=O)[C@H](CC(N)=O)NC(=O)[C@H](CCC(=O)O)NC(=O)[C@H](CCC(=O)O)NC(=O)[C@H](CC(N)=O)NC(=O)[C@@H](N)CC(N)=O)C(C)C)C(C)C)C(=O)N[C@@H](Cc1cnc[nH]1)C(=O)N[C@@H](CO)C(=O)N[C@@H](CC(C)C)C(=O)N[C@@H](CC(C)C)C(=O)NCC(N)=O` [NNEENELRRRVSFNRAVIHSLLG], the MIC in assay [1] and in assay [2] was above 257 µM in each case.
`CC(C)C[C@H](NC(=O)[C@H](Cc1ccccc1)NC(=O)[C@@H]1CCCN1C(=O)[C@H](Cc1c[nH]c2ccccc12)NC(=O)[C@H](Cc1c[nH]c2ccccc12)NC(=O)[C@H](Cc1c[nH]c2ccccc12)NC(=O)[C@H](C)NC(=O)[C@H](Cc1ccccc1)NC(=O)[C@H](CCCN=C(N)N)NC(=O)[C@H](CCCN=C(N)N)NC(=O)[C@@H](N)C(C)C)C(=O)N[C@@H](CCCN=C(N)N)C(=O)N[C@@H](CCCN=C(N)N)C(N)=O` [VRRFAWWWPFLRR]: the results for the MIC (in assay [1]; in the assay on Escherichia coli; against Staphylococcus aureus) were 8 µM (≈ 15 µg/mL), 10.7 µM (≈ 20 µg/mL) and 2.13 µM (≈ 4 µg/mL), respectively.
For `CC(C)[C@H](NC(=O)[C@H](Cc1ccc(O)cc1)NC(=O)[C@H](CO)NC(=O)[C@H](CCCCN)NC(=O)[C@@H](N)Cc1c[nH]c2ccccc12)C(=O)N[C@@H](CCCN=C(N)N)C(=O)N[C@@H](CCCN=C(N)N)C(=O)N[C@@H](Cc1c[nH]c2ccccc12)C(=O)N[C@@H](CCCN=C(N)N)C(N)=O` [WKSYVRRWR], the results for the minimal inhibitory concentration (MIC) in assay [1], in assay [4] and in assay [5] were 64 µM (≈ 85.5 µg/mL), above 100 µM and 64 µM (≈ 85.5 µg/mL), respectively.

(Values after DBAASP.)
